Test results: article PMC10018608 (Signal Transduction and Targeted Therapy, 2023)

Tests used:
[1] = in vitro; format: in vitro ADME; settings: human, microsomes, HLM 0.5 mg/mL, 1 μM
[2] = test system: MERS-CoV; assay: microbe, parasite or virus in culture; format: cell-based; settings: Middle East respiratory syndrome-related coronavirus, VeroE6/TMPRSS2, read-out: EC50 (plaque reduction)
[3] = test system: SARS-CoV-2 (B.1.351); assay: Plaque reduction assay in VeroE6-TMPRSS2; format: cell-based; settings: Severe acute respiratory syndrome coronavirus 2
[4] = in vivo; settings: male, ICR, mouse
[5] = in vivo; settings: male, Sprague-Dawley, rat
[6] = in vitro; format: cell-based; settings: 72 h
Description: Cells were seeded and grown in 96 well plates overnight. Then various concentrations of compounds in fresh medium were added and incubated for 72 h. Using MTT (Sigma) assay to determine the cell viability.

[7] = in vitro; format: in vitro ADME, human; settings: human plasma, equilibrium dialysis; read-out: plasma unbound fraction
[8] = test system: various human proteases; assay: Mammalian proteases activity assay (text summary of the panel); format: biochemical; settings: tested various human proteases
Description: The mammalian proteases activity assay was analyzed using the assay kit (Biovision, USA) in triplicate by following manufacturer’s manual.

[9] = test system: SARS-CoV-2 (B.1.1.7); assay: Plaque reduction assay in VeroE6-TMPRSS2; format: cell-based; settings: Severe acute respiratory syndrome coronavirus 2

SMILES: COC[C@@H](NC(=O)C1CCCC(F)(F)C1)C(=O)N[C@H](Cc1ccccc1)C(=O)C(=O)NCc1nccs1 (stereo partly drawn) [SY110, N-((R)-1-(((R)-3,4-dioxo-1-phenyl-4-((thiazol-2-ylmethyl)amino)butan-2-yl)amino)-3-methoxy-1-oxopropan-2-yl)-3,3-difluorocyclohexane-1-carboxamide]
- remaining at 0 h ([1]; 0 min, Mean, read-out: Percent Remaining (%) 0 min): 100%
- remaining at 5 min ([1]; 5 min, Mean, read-out: Percent Remaining (%) 5 min): 80.7%
- remaining at […] ([1]; 15 min, Mean, read-out: Percent Remaining (%) 15 min): 65.4%
- remaining at 0.5 h ([1]; 30 min, Mean, read-out: Percent Remaining (%) 30 min): 48%
- remaining at 0.75 h ([1]; 45 min, Mean, read-out: Percent Remaining (%) 45 min): 37.2%
- remaining at 1 h ([1]; 60 min, Mean, read-out: Percent Remaining (%) 60 min): 29.8%
- CLint scaled ([1]; scaling factor 1254.2): 49.2 mL/min/kg
- EC50 [2]: 6.27 µM
- EC50 [3]: 2.84 µM
- AUC(0-inf) ([4]; iv, 1 mg/kg): 87.1 ± 7.81 ng·h/mL
- AUC(0-t) ([4]; iv, 1 mg/kg): 85.9 ± 7.6 ng·h/mL
- Cmax ([4]; iv, 1 mg/kg): 285 ± 16.4 ng/mL
- Tmax ([4]; iv, 1 mg/kg): 0.08 h
- clearance ([4]; iv, 1 mg/kg): 192 ± 16.4 mL/min/kg
- half-life ([4]; iv, 1 mg/kg): 0.27 ± 0.17 h
- AUC(0-inf) ([4]; po, 150 mg/kg): 15700 ± 4420 ng·h/mL
- AUC(0-t) ([4]; po, 150 mg/kg): 15100 ± 5140 ng·h/mL
- Cmax ([4]; po, 150 mg/kg): 4080 ± 636 ng/mL
- Tmax ([4]; po, 150 mg/kg): 0.33 ± 0.14 h
- half-life ([4]; po, 150 mg/kg): 3.25 ± 1.03 h
- AUC(0-inf) ([5]; iv, 1 mg/kg): 2320 ± 592 ng·h/mL
- AUC(0-t) ([5]; iv, 1 mg/kg): 2300 ± 587 ng·h/mL
- Cmax ([5]; iv, 1 mg/kg): 1740 ± 285 ng/mL
- Tmax ([5]; iv, 1 mg/kg): 0.08 h
- clearance ([5]; iv, 1 mg/kg): 7.47 ± 1.67 mL/min/kg
- half-life ([5]; iv, 1 mg/kg): 4.67 ± 0.19 h
- AUC(0-inf) ([5]; po, 10 mg/kg): 20200 ± 2600 ng·h/mL
- AUC(0-t) ([5]; po, 10 mg/kg): 19000 ng·h/mL
- Cmax ([5]; po, 10 mg/kg): 1430 ± 98.5 ng/mL
- Tmax ([5]; po, 10 mg/kg): 4 ± 2 h
- bioavailability ([5]; po, 10 mg/kg): 82.8%
- half-life ([5]; po, 10 mg/kg): 5.16 ± 2.94 h
- CC50 ([6]; African green monkey, VeroE6, MTT): > 500 µM
- CC50 ([6]; human, BEAS-2B, MTT): > 500 µM
- CC50 ([6]; human, HUVEC, MTT): > 500 µM
- fraction unbound [7]: 0.301
- no observed adverse effect level (14 days repeated dose toxicity study, text says rats): 600 mg/kg
- Results, repeated dose two-week toxicity study (mice, p.o., 600 mg/kg, twice daily, 14 days): without death, significant body weight change, or pathological changes in the heart, liver, lung, kidney, or spleen
- IC50 [8]: > 100 µM
- EC50 [9]: 1.21 µM
